Data: paper PMC12714101, “CD160-Derived Peptide as a Bidirectional Inhibitor Toward Immune Checkpoints BTLA/HVEM and HVEM/LIGHT” (Journal of Medicinal Chemistry, 2025)
Values joined by “and” are separate entries in the source; they are usually repeats but may differ in a detail not shown here. Equal values may be shown once. Where a SMILES comes first, the peptide text is derived from it.

What was measured:
BTLA/HVEM interaction = test: Cellular reporter assay, HVEM reporter cells (JE6.1-NF-κB::eGFP) stimulated with TCS-BTLA; type: cell-based, human; settings: 30 min preincubation, 24 h coculture, NF-κB::eGFP by flow cytometry, mean of four independent experiments in duplicate
Method: In the next step of the study, the inhibitory properties of the designed peptides were evaluated using previously described cell-based assays. The experiment utilized reporter cells expressing HVEM (JE6.1-NF-κB::eGFP) and T cell stimulator cells expressing BTLA (TCS-BTLA). Activation of the reporter cells by TCS followed a two-signal model. The first is generated through the interaction between the T cell receptor–cluster of differentiation 3 (TCR–CD3) complex on the surface of the reporter cells and a membrane-bound antihuman CD3 single-chain antibody fragment (mAb aCD3) expressed on the TCS cells. The second signal is provided by the binding of HVEM and BTLA, which in this assay results in a strong costimulatory signal via HVEM. Activation of the reporter cells leads to the expression of nuclear factor kappa light chain enhancer of activated B cells (NF-κB), which correlates with the level of enhanced green fluorescent protein (eGFP), measured by flow cytometry. In the absence of peptides, NF-κB expression is normalized to 100%. Disruption of the BTLA/HVEM interaction by peptides results in a concentration-dependent decrease in NF-κB levels. In this study, HVEM-expressing reporter cells were stimulated with BTLA-expressing TCS cells in the presence or absence of tested peptides at three different concentrations.
(§1) Cellular studies were performed in the same procedure as we described previously for gD- and BTLA-derived peptides. , The peptides were dissolved in the medium, and their final concentrations in wells were 150, 50, and 16,7 μM. Briefly, reporter cells expressing HVEM (JE6.1-NF-κB::eGFP) (5 × 10^4 cells/well) were preincubated with peptides for 30 min in a 96-well flat-bottom plate. Subsequently, the second cell line expressing BTLA (TCS BTLA) or LIGHT (TCS LIGHT) (2 × 10^4 cells/well) was added and cocultured for 24 h at 37 °C in an atmosphere of 5% CO2. Next, an APC-conjugated mCD45.2 antibody to exclude TCS from the reporter cells was added. The expression of the reporter gene (eGFP) was measured via flow cytometry using a CytoFLEX flow cytometer (Beckman Coulter Inc., Brea, CA, USA), and the results were analyzed using FlowJo v10.10 (FlowJo LLC, Ashland, OR, USA). The data were analyzed using GraphPad Prism 8 software (San Diego, CA, USA).

HVEM/LIGHT interaction = test: Cellular reporter assay, HVEM reporter cells (JE6.1-NF-κB::eGFP) stimulated with TCS LIGHT; type: cell-based, human; settings: 24 h coculture, three experiments
Method: These findings prompted us to investigate whether the peptide is also capable of inhibiting the binding of HVEM to its ligand–the LIGHT protein. Accordingly, ELISA and cell-based assays were conducted under the same conditions as those used for the BTLA/HVEM complex, with the exception that LIGHT was used instead of BTLA.
as §1

**Q.** With CC[C@@H]1NC(=O)[C@@H](NC(=O)[C@H](CCC(N)=O)NC(=O)[C@H](Cc2ccc(O)cc2)NC(C)=O)CSSC[C@@H](C(=O)N[C@@H](Cc2c[nH]cn2)C(=O)N[C@@H](Cc2ccccc2)C(=O)N[C@@H](Cc2ccccc2)C(N)=O)NC(=O)[C@H](CCC(N)=O)NC(=O)[C@H](CC(C)C)NC(=O)[C@H](CCCNC(=N)N)NC(=O)[C@H]([C@@H](C)CC)NC(=O)CNC(=O)[C@H](CO)NC(=O)[C@H](CCCCN)NC(=O)[C@H](CCC(N)=O)NC(=O)[C@H](CO)NC(=O)[C@H](CCCNC(=N)N)NC(=O)[C@H](C)NC1=O [A5, CD160(110–128) ^(C113X,G125C)] (HELM PEPTIDE1{[ac].Y.Q.C.[Abu].A.R.S.Q.K.S.G.I.R.L.Q.C.H.F.F.[am]}$PEPTIDE1,PEPTIDE1,4:R3-17:R3$$$V2.0) as the compound, how does the “Inhibition - Cellular assay 16.67 µM” value (BTLA/HVEM interaction; peptide 16.67 μM) read?
**A.** The value was ~14% and 14.03%.

**Q.** And the “Inhibition - Cellular assay 50 µM” value (BTLA/HVEM interaction; peptide 50 μM)?
**A.** The value was 59.04%.

**Q.** And the “Inhibition - Cellular assay 150 µM” value (BTLA/HVEM interaction; peptide 150 μM)?
**A.** Its value is 80.42%.

**Q.** And the “Inhibition of NF-κB activation, HVEM/LIGHT cell-based assay, 16.67 μM” value (HVEM/LIGHT interaction; peptide 16.67 μM)?
**A.** Its value is 13%.

**Q.** What about the “Inhibition of NF-κB activation, HVEM/LIGHT cell-based assay, 50 μM” value (HVEM/LIGHT interaction; peptide 50 μM) of the same compound?
**A.** The value was 34%.

**Q.** And the “Inhibition of NF-κB activation, HVEM/LIGHT cell-based assay, 150 μM” value (HVEM/LIGHT interaction; peptide 150 μM)?
**A.** The value was 72%.
